Laboratory results published in a melting point compilation (Tetko et al.; mined from patent text by program, amines drawn as free bases though some values may be those of a salt).

melting point [°C] | Structure (SMILES)
57 | CC(C)OC(=O)c1cc(-c2nn(C)c(C(F)(F)F)c2C(F)F)c(F)cc1Cl
121 to 122 | COc1ccc2c(-c3cc(F)ccc3F)noc2c1
129 | O=C(NC(=NCCCc1c[nH]cn1)NCC(O)COc1ccccc1)c1ccccc1 (centres undefined)
176 to 178 | CC(=O)N=C(O)c1cc(C(O)=NCCOC(C)=O)c(C(=O)O)cc1C(=O)O
78 to 80 | O[C@H](COc1cccc2cc(-c3nnc(-c4ccccc4)o3)oc12)CN1CCC(c2ccc3ccccc3c2)CC1
256 | CC(=O)Nc1ccc(N2CCN(c3ccc(O)cc3)CC2)cc1
80 to 82 | Cc1ccc(C)c(C(=O)NC(C)(C)C)c1
127 to 130 | CCOC(=NC(=O)Nc1ccc(Oc2ncc(C(F)(F)F)cc2Cl)cc1)c1c(F)cccc1F
262 | Cc1ccc(-c2[nH]c(=O)n(C3CCN(Cc4ccccc4C)CC3)c2C)cc1
62.5 to 63.5 | O=C(CI)OCc1ccc([N+](=O)[O-])cc1
125 to 126 | O=C(/C=C/c1ccc(S(=O)(=O)N2CCN(C(c3ccc(F)cc3)c3ccc(F)cc3)CC2)cc1)NO
104 to 106 | Cc1cccc(S(=O)(=O)C2(CC#Cc3ccc(Cl)cc3)SC(=O)NC2=O)n1 (centres undefined)
155 | CCC(=O)C1=C(O)CC(c2ccc3c(c2)OCCO3)CC1=O (centres undefined)
221 to 222 | COC(=O)c1nn(Cc2cccc(NC(=O)OC(C)(C)C)c2)c2c1CCc1cc(OCc3cncnc3)ccc1-2
121 to 124 | CCCc1cc2cc(O)c(F)cc2c(Oc2ccc(/C=C/C(N)=O)cc2)c1-c1ccccc1
130 to 132 | CC(C)(C)OC(=O)CC(O)c1ccc(Cl)nc1NC(=O)C(C)(C)C (centres undefined)
60.5 to 61.5 | C#CCOc1cc(C(=O)OC)ccc1F
156 to 157 | CC(C)(C)OC(=O)CC1(O)CCc2c([nH]c3ccccc23)C1=O (centres undefined)
99 to 100 | C=CC(=O)C1C(=O)N(c2ccc(OC)cc2)C1c1ccccc1Cl (centres undefined)
147 | COC(=O)CN=C(Cc1ccccc1)N1CC2C(=O)CCC(c3ccccc3)(c3ccccc3)C2C1 (centres undefined)
198 to 200 | COc1ccc(-c2nc(-c3cccn3CC(=O)O)sc2-c2ccc(OC)cc2)cc1
150 to 152 | CC(C)(CC(=O)C(=O)Nc1ccc2c(c1Br)COC2=O)c1ccccc1

melting point [°C] | Structure (SMILES)
74 to 78 | CCCCCCCCCCCCCCCCCC(O)c1ccc(C2=NC(C)(C)CO2)c(Cl)c1 (centres undefined)
90 to 92 | O=C1CN(CCCBr)Oc2ccccc21
108 to 110 | NC(=O)c1cc(-c2ccc(Cl)cc2)n(-c2ccc(S(N)(=O)=O)cc2)n1
167 to 169 | CC(=O)N(N=Cc1c(Cl)cccc1Cl)c1nncn1N(C)C(C)=O
86 to 87 | CCc1cc(N(C)C(=O)N2CCN(c3cc(C)cc(C)c3)CC2)c(OC)nc1C
113 to 114 | CCOc1ccc(-c2nc(-c3cc(CCO)c(O)c(C(=O)OC)c3)cs2)cc1OCC
239 to 241 | Cc1nnc2cc(-c3ccccn3)ccn12
217 to 219 | O=C1N=CN(c2ccc(Cl)cc2)C12CCN(Cc1ccccc1)CC2
212 to 214 | CN1c2ccccc2-c2nc3ccccc3c3cccc1c23
112 | CC(C)(C)OC(=O)NC(CF)CC(=O)O (centres undefined)
222 to 225 | Cc1nc(N2CCN(Cc3ccc(F)cc3)C2=O)sc1C(=O)NCc1cccnn1
190 | Nc1cc(OCCO)nc(N)n1
120 to 122 | Cc1nn(C)c(S(N)(=O)=O)c1C(=O)OC(C)C
130 to 131 | CCC(C)(C)N=C(NC#N)Nc1cc(F)cc(Cl)c1
107 | CCCCc1oc2ccc([N+](=O)[O-])cc2c1C(=O)c1ccc(OCCCCCN(CCCC)CCCC)cc1
160 to 162 | Cc1ccc(NC(=O)Nc2cccc(C(F)(F)F)c2)cc1/C=C/n1cnc2c(NC3CC3)ncnc21
52.6 to 53 | CCCCCCCCCCC(O)C(O)CNCc1ccccc1 (centres undefined)
46 to 49 | CCCCCCSc1ncnc2c1ncn2C1CC(F)C(CO)O1 (centres undefined)
145 to 146 | COC(=O)c1cccc(OS(N)(=O)=O)c1
126 | CCOC(=O)C(=O)NNC(=O)c1ccc(OCC)cc1
109 to 111 | CC(C)c1cc(C(C)(C)C)cc(-c2ccc(F)cc2)c1O
189 to 192 | CC1=NN(c2cc(-c3ccnc(Nc4cccc(Cl)c4)n3)ccn2)C(=O)CC1

melting point [°C] | Structure (SMILES)
103 to 104 | COc1cc(NS(=O)(=O)c2ccc(C)cc2)cc(OC)c1
157 to 161 | COc1ccc(-c2nc3cc(Cl)cc(C#CCN(O)C(=O)OC(C)(C)C)c3o2)cc1OC1CCCC1
141 to 142 | COc1nc(SC)cnc1NS(=O)(=O)c1cccc(Cl)c1Cl
78 to 86 | C=C(Cc1ccc(Cl)cc1)C(=O)O
187 to 189 | COc1cn(-c2cccc(N3CCOCC3)c2F)nc(-c2ccnn2-c2ccccc2)c1=O
145 to 147 | c1cc2cc(CSc3nnc(-c4ccc5c(c4)CCO5)o3)ccc2o1
124 | CC(C)(C)OC(=O)NC(C)(C)c1ccc(-c2nc(Nc3ccc(CCn4ccnc4)cc3)ncc2C#N)cc1
217 to 221 | COC(=O)CCc1cc2cc(Cl)ccc2n1S(=O)(=O)c1ccc2nc(NC(C)=O)sc2c1
90 to 91 | CCCC(CCC)n1nnc2c(Cl)nc(C)cc21
124 to 126 | CCN(CC)CCN1c2cc(Cl)ccc2S[C@H]2[C@@H](OC(=O)c3ccccc3)[C@H](OC(=O)c3ccccc3)[C@@H](COC(=O)c3ccccc3)O[C@H]21
61 | O=C(C=Cc1ccc(Cl)cc1)C1CC1
139 to 142 | Cc1c(-c2ccccc2)c(N2CC[C@H](N(C)C)C2)c2oc(-c3ccccc3[N+](=O)[O-])nc2c1C#N
221 | Fc1cccc(-c2ncc(-c3cnc(-c4ccccc4)nc3)[nH]2)c1
152 | CC(O)CN(C)Cc1cc2c(=O)c(C(=O)NCc3ccc(Cl)cc3)cn(C)c2o1 (centres undefined)
85 to 87 | CCCCc1nn(-c2cc(N)ccc2Cl)c(=O)n1Cc1ccc(-c2cc(CCC)ccc2S(=O)(=O)NC(C)(C)C)cc1F
41.4 to 44.6 | Cc1cc(C(Cl)=C(Cl)Cl)cc(C(Cl)=C(Cl)Cl)c1
190 to 191 | O=C(O)CCc1cc(OCCCc2cn(-c3ccc(C(F)(F)F)cn3)nc2C2CCCCC2)nn1C1CCCCC1
251 to 254 | COc1ccc(-c2csc(Nc3cccnc3)n2)cc1OC
159 | O=C(Oc1ccc([N+](=O)[O-])cc1)C(=O)N1CCOC1=O
191 to 193 | O=c1c2ccc(OCC3CO3)cc2oc2ccc3cccc(O)c3c12 (centres undefined)

Structure (SMILES) | melting point [°C]
O=C(Cc1ccc(Cl)cc1)NC1N=C(c2ccccc2)c2ccccc2NC1=O (centres undefined) | 238 to 240
CCCCCNc1nc2ccccc2n1C1CCN(C2(c3ccccc3)CCCCCC2)CC1 | 156 to 159
CN1CCC(O)(c2cccc(Cl)c2F)C1 (single isomer, unassigned; (+)) | 123 to 125
CCCc1c2c(nc3cc(F)c(F)cc13)-c1cc3c(c(=O)n1C2)COC(=O)CC3(O)CC (centres undefined) | 250
Nc1nc2[nH]c(CCCc3cc(C(=O)N[C@@H](CCC(=O)O)C(=O)O)cs3)cc2c(=O)[nH]1 | 191 to 192
